Patent US10745352B2, “Dual function molecules for histone deacetylase inhibition and ataxia telangiectasia mutated activation and methods of use thereof” (Shuttle Pharmaceuticals, Inc., priority 2015, dated 2020)

Columns and labels:
[1] = tested on: cervical cancer cells (CasKi); assay: Radiation clonogenic survival, cervical cancer cells; format: cell-based
Description: Logarithmically growing cells were seeded into T-25 flasks at various densities to yield approximately 50-100 colonies/flask. After incubation for 24 h at 37° C., cells were treated or not with the compound at the IC50 concentration for 24 h followed by sham or irradiation at room temperature using a Mark-30 irradiator with a 137-Cs source at a fixed dose rate of 2.27 Gy/min. After 10-14 days, cells were fixed and stained with crystal violet, and colonies of more than 50 cells were counted. The surviving fractions of the treated cells were normalized to the plating efficiencies of untreated controls. Radiation survival curves were fitted by computer to the single-hit, multitarget and the linear-quadratic models.
FIGS. 17-19 illustrate the effects of drugs on radiation cologenetic survivals. Cells were pretreated with drug 24 hours prior to exposure to graded doses of gamma radiation. Compounds SP-1-161 and SP-1-303 were tested in a clonogenic survival study with cervical cancer cells (CasKi) with a protocol similar to that described in Example 12. The radiation sensitivity of cells is defined by the terminal slope of the radiation survival curve, which is referred to as D0. The steeper the slope, the smaller the value of D0 and thus the more radiation sensitive the respective cells. Alternatively, a less steep slope results in a larger D0 and a more resistant radiation response. […]

[2] = tested on: ATM; assay: ATM activation: phospho-ATM (S1981) ELISA on the nuclear fraction of MCF7 cells; format: cell-based, Human; details: 1 μM, time course of 6 hours
Description: Several assays were utilized to determine the ability of the compounds of the invention to activate ATM over a period of time. […] The fold change in phospho-ATM was measured over a period of time. Accordingly, the increase in phospho-ATM indicates activation of ATM by the compounds of the invention.
In certain examples, the activity of the compounds of the invention was compared to additional modulators of ATM, such as […] (a specific ATM inhibitor); dimethylsulfoxide (DMSO) (a solvent); 3,3′-diindolylmethane (DIM) (an ATM activator); and irradiation (irradiation may result in the generation of phospho-ATM due to DNA damage). DIM was not used as a comparative compound in Example 5.
Materials: MCF7 Cells; Complete RPMI media: RPMI, 10% Fetal Bovine Serum (FBS), 5% L-glutamine, 5% Pen/Strep; R&D Systems Human P-ATM (S1981) DuoSet IC ELISA Assay Kit; Plate sealers; Normal mouse serum (heat inactivated 56 C for 30 min); 96-well ELISA microtiter plate; 450 nm Plate Reader; 60 mm dishes; Disposable pipettes; Pipet-aid; Pipette tips; Micro-pipetter; Cell scraper; Distilled water; Pierce NE-PER Nuclear and Cytoplasmic Extraction Reagent; Pierce Protease and Phosphotase Inhibitor Mini Tablets; KU-55933; DIM (not used in Example 5); Dimethyl sulfoxide (DMSO); Phosphate buffered saline (PBS); and Sterile micro-tubes and conical tubes; Hemocytometer; Microscope; Micro-centrifuge.
MCF7 Cells were grown in Complete RPMI media and 10^6 cells were seeded into 60 mm dishes. Dishes were then divided into duplicate treatments the following day. Control samples were treated with 3 ml RPMI media for 1 hr. Vehicle samples were treated with 3 ml RPMI media plus 0.1% DMSO for 1 hr. Negative control samples were treated with 10 μM KU-55933 in 3 ml RPMI media plus 0.1% DMSO for 1 Hr. Positive control samples were treated with 0.5 μM DIM in 3 ml RPMI media plus 0.1% DMSO for 30 min. Test Samples were treated with 1 μM of the test compounds (e.g. N-(6-(hydroxyamino)-6-oxohexyl)-1H-indole-2-carboxamide in Example 5) in 3 ml RPMI media plus 0.1% DMSO for 30 min; 1 hr; 2 hrs; 4 hrs; and 6 hrs. At their designated time, samples were harvested on ice using a cell scraper and two washes of 1 ml PBS and kept as a cell pellet on dry ice until all were collected. After all samples were collected they were thawed on ice and separated into cytosolic and nuclear fractions using the Pierce NE-PER Nuclear and Cytoplasmic Extraction Reagent kit with added Pierce protease and phosphotase inhibitor tablet.
After recovery of the separate fractions, the process further included washing cells by suspending the cell pellet with PBS. 1-10×10^6 cells were transferred to a 1.5 mL microcentrifuge tube and a pellet was formed by centrifugation at 500×g for 2-3 minutes. […]

Cc1c(C(=O)NCCCCCC(=O)NO)[nH]c2ccccc12 [SP-1-161, N-(6-(hydroxyamino)-6-oxohexyl)-3-methyl-1H-indole-2-carboxamide]
D0 (terminal slope of the radiation survival curve) ([1]; CasKi cells pretreated with drug 24 hours before graded doses of gamma radiation, DMSO control D0=2.4): 1.6 | radiation sensitization of CasKi cells (decrease of D0 with respect to control) ([1]; CasKi cells, drug 24 hours before gamma radiation): sensitized CasKi cells | ATM activation (level of ATM phosphorylation, phospho-ATM) [2]: exemplary ATM activation activity
